Several values for one entry are separate records, joined by “and”; a condition that tells them apart may be missing. Identical values can stand only once. Inconclusive results and toxic doses are left out. The calls were made as follows: active = survival T/C of 150% or more; inactive = T/C below 125% in these data.
Test system: P388 leukemia ip, CD2F1 mice, survival T/C
Experiment: NCI In Vivo Anticancer Drug Screen. Data for tumor model P388 Leukemia (intraperitoneal) in CD2F1 (CDF1) mice
Conditions: endpoint: median survival time, higher = longer survival
Summary of the method: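 Mice carrying the transplanted tumor received test compound or vehicle. Survival was recorded in each group, and the value is the treated-group measurement divided by that of the vehicle-treated control group.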

[1] = dose: 50.0 mg/kg/injection, schedule: Q01DX005 (ip), vehicle: saline
[2] = dose: 100.0 mg/kg/injection, schedule: Q01DX005 (ip), vehicle: saline
[3] = dose: 200.0 mg/kg/injection, schedule: Q01DX005 (ip), vehicle: saline
[4] = dose: 12.5 mg/kg/injection, schedule: Q01DX009 (ip), vehicle: Klucel (hydroxypropylcellulose) (HPC)
[5] = dose: 25.0 mg/kg/injection, schedule: Q01DX009 (ip), vehicle: Klucel (hydroxypropylcellulose) (HPC)
[6] = dose: 50.0 mg/kg/injection, schedule: Q01DX009 (ip), vehicle: Klucel (hydroxypropylcellulose) (HPC)
[7] = dose: 100.0 mg/kg/injection, schedule: Q01DX009 (ip), vehicle: Klucel (hydroxypropylcellulose) (HPC)
[8] = dose: 12.5 mg/kg/injection, schedule: Q01DX005 (ip), vehicle: saline with Tween-80
[9] = dose: 25.0 mg/kg/injection, schedule: Q01DX005 (ip), vehicle: saline with Tween-80
[10] = dose: 50.0 mg/kg/injection, schedule: Q01DX005 (ip), vehicle: saline with Tween-80
[11] = dose: 100.0 mg/kg/injection, schedule: Q04DX003 (ip), vehicle: saline
[12] = dose: 200.0 mg/kg/injection, schedule: Q04DX003 (ip), vehicle: saline
[13] = dose: 400.0 mg/kg/injection, schedule: Q04DX003 (ip), vehicle: saline
[14] = dose: 100.0 mg/kg/injection, schedule: Q01DX001 (ip), vehicle: Klucel (hydroxypropylcellulose) (HPC)
[15] = dose: 200.0 mg/kg/injection, schedule: Q01DX001 (ip), vehicle: Klucel (hydroxypropylcellulose) (HPC)
[16] = dose: 400.0 mg/kg/injection, schedule: Q01DX001 (ip), vehicle: Klucel (hydroxypropylcellulose) (HPC)
[17] = dose: 50.0 mg/kg/injection, schedule: Q01DX009 (ip), vehicle: saline with Tween-80
[18] = dose: 100.0 mg/kg/injection, schedule: Q01DX009 (ip), vehicle: saline with Tween-80
[19] = dose: 200.0 mg/kg/injection, schedule: Q01DX009 (ip), vehicle: saline with Tween-80
[20] = dose: 6.25 mg/kg/injection, schedule: Q01DX009 (ip), vehicle: Klucel (hydroxypropylcellulose) (HPC)
[21] = dose: 50.0 mg/kg/injection, schedule: Q01DX005 (ip), vehicle: Klucel (hydroxypropylcellulose) (HPC)
[22] = dose: 100.0 mg/kg/injection, schedule: Q01DX005 (ip), vehicle: Klucel (hydroxypropylcellulose) (HPC)
[23] = dose: 200.0 mg/kg/injection, schedule: Q01DX005 (ip), vehicle: Klucel (hydroxypropylcellulose) (HPC)
[24] = dose: 100.0 mg/kg/injection, schedule: Q04DX002 (ip), vehicle: saline with Tween-80
[25] = dose: 200.0 mg/kg/injection, schedule: Q04DX002 (ip), vehicle: saline with Tween-80
[26] = dose: 400.0 mg/kg/injection, schedule: Q04DX002 (ip), vehicle: saline with Tween-80
[27] = dose: 100.0 mg/kg/injection, schedule: Q01DX005 (ip), vehicle: saline with Tween-80
[28] = dose: 60.0 mg/kg/injection, schedule: Q01DX005 (ip), vehicle: saline with Tween-80
[29] = dose: 120.0 mg/kg/injection, schedule: Q01DX005 (ip), vehicle: saline with Tween-80
[30] = dose: 240.0 mg/kg/injection, schedule: Q01DX005 (ip), vehicle: saline with Tween-80

Measured: T/C

CC(=O)CC(C)=O.CC(=O)CC(C)=O.[Cl][Sn][c]1ccccc1
inactive: dose: 25.0 mg/kg/injection, schedule: Q01DX005 (ip), vehicle: saline 109 % of control and 116 % of control | [1] 110 % of control and 122 % of control | [2] 109 % of control and 115 % of control | [3] 107 % of control and 111 % of control and 113 % of control

Cc1cccc(Cl)c1NC(=O)CCl
inactive: [4] 101 % of control | [5] 101 % of control | [6] 93 % of control | [7] 101 % of control

N#C/C(=N\NC(=O)c1ccccc1)c1ccccc1
inactive: [8] 100 % of control | [9] 95 % of control | [10] 103 % of control and 95 % of control

Cn1c2nc(-[n+]3ccccc3)nc-2c([O-])n(C)c1=O
inactive: [11] 94 % of control | [12] 100 % of control | [13] 100 % of control

Fc1ccc(N=Cc2cccs2)cc1
inactive: [6] 110 % of control | [7] 107 % of control | dose: 200.0 mg/kg/injection, schedule: Q01DX009 (ip), vehicle: Klucel (hydroxypropylcellulose) (HPC) 110 % of control

CCC(=O)n1c(Cl)c(/C=N/NC(N)=S)c2ccccc21
inactive: [14] 95 % of control | [15] 100 % of control | [16] 93 % of control

CCC[n+]1ccc(/C=N\NC(N)=S)c2ccccc21
inactive: [17] 110 % of control | [18] 121 % of control | [19] 112 % of control

O=[N+]([O-])c1cc2ccccc2c(O)c1O
inactive: dose: 12.5 mg/kg/injection, schedule: Q01DX009 (ip), vehicle: saline with Tween-80 95 % of control | dose: 25.0 mg/kg/injection, schedule: Q01DX009 (ip), vehicle: saline with Tween-80 104 % of control | [17] 118 % of control

C/C(=N\NC(=S)SCc1ccccc1)c1ccccn1
inactive: dose: 3.12 mg/kg/injection, schedule: Q01DX009 (ip), vehicle: Klucel (hydroxypropylcellulose) (HPC) 108 % of control | [20] 103 % of control and 110 % of control

CCN1C[C@@]2(C)CCC(OC)C34[C@H]2[C@@H](OC(C)=O)C2(OCO[C@]25C[C@@H](OC)C2C[C@@]3(O)[C@H]5C2O)[C@@H]14 (stereo not given in full)
inactive: dose: 4.0 mg/kg/injection, schedule: Q01DX005 (ip), vehicle: saline with Tween-80 100 % of control | dose: 8.0 mg/kg/injection, schedule: Q01DX005 (ip), vehicle: saline with Tween-80 99 % of control | dose: 16.0 mg/kg/injection, schedule: Q01DX005 (ip), vehicle: saline with Tween-80 97 % of control | dose: 32.0 mg/kg/injection, schedule: Q01DX005 (ip), vehicle: saline with Tween-80 107 % of control | dose: 64.0 mg/kg/injection, schedule: Q01DX005 (ip), vehicle: saline with Tween-80 108 % of control

CCOC(=O)/C(=C(\C)N)C1CC(=O)NC1=O (stereo not given)
inactive: dose: 25.0 mg/kg/injection, schedule: Q01DX009 (ip), vehicle: saline 104 % of control | dose: 50.0 mg/kg/injection, schedule: Q01DX009 (ip), vehicle: saline 104 % of control | dose: 100.0 mg/kg/injection, schedule: Q01DX009 (ip), vehicle: saline 101 % of control | dose: 200.0 mg/kg/injection, schedule: Q01DX009 (ip), vehicle: saline 107 % of control

O=S(=O)(O/C1=C/CCCCCC1)C(F)(F)F
inactive: dose: 50.0 mg/kg/injection, schedule: Q01DX009 (ip), vehicle: olive oil, sesame oil, peanut oil 97 % of control | dose: 100.0 mg/kg/injection, schedule: Q01DX009 (ip), vehicle: olive oil, sesame oil, peanut oil 113 % of control | dose: 200.0 mg/kg/injection, schedule: Q01DX009 (ip), vehicle: olive oil, sesame oil, peanut oil 103 % of control

CCCCCCCC/C=C\CCCCCCCCSC1=CC(=O)C(OC)=C(OC)C1=O
inactive: dose: 3.13 mg/kg/injection, schedule: Q01DX009 (ip), vehicle: Klucel (hydroxypropylcellulose) (HPC) 98 % of control | [20] 96 % of control | [4] 100 % of control | [5] 103 % of control

O=C(O)c1c[nH]c2cc(OCCOc3ccc4ccccc4c3)ccc2c1=O
inactive: [11] 99 % of control | [12] 88 % of control | [13] 94 % of control

Cc1cc2c(c(O)cc(=O)n2Cc2ccccc2)c(=O)n1Cc1ccccc1
inactive: [21] 102 % of control | [22] 94 % of control | [23] 100 % of control

Clc1ccc(-n2cnn3c(-c4ccccc4)ncc23)cc1
inactive: [24] 90 % of control | [25] 87 % of control | [26] 93 % of control

O=C1OC(CO)CC1(O)CO (stereo not given)
inactive: dose: 60.0 mg/kg/injection, schedule: Q01DX005 (ip), vehicle: saline 99 % of control | dose: 120.0 mg/kg/injection, schedule: Q01DX005 (ip), vehicle: saline 105 % of control | dose: 240.0 mg/kg/injection, schedule: Q01DX005 (ip), vehicle: saline 104 % of control

O=C(O)CC(C(=O)O)S(=O)CP(=O)(O)O (stereo not given)
inactive: [1] 95 % of control | [2] 103 % of control | [3] 110 % of control

COc1cccc2c1C(=O)c1ccccc1-2
inactive: [21] 102 % of control | [22] 102 % of control | [23] 91 % of control

Cc1ccc(C(C(=O)O)(c2ccc(C)cc2)C(O)C(=O)O)cc1 (stereo not given)
inactive: [14] 107 % of control | [15] 107 % of control | [16] 105 % of control

O=C(c1ccccc1)C(c1ccccc1)n1ncc2c1CCC2 (stereo not given)
inactive: dose: 100.0 mg/kg/injection, schedule: Q04DX003 (ip), vehicle: Klucel (hydroxypropylcellulose) (HPC) 105 % of control | dose: 200.0 mg/kg/injection, schedule: Q04DX003 (ip), vehicle: Klucel (hydroxypropylcellulose) (HPC) 100 % of control | dose: 400.0 mg/kg/injection, schedule: Q04DX003 (ip), vehicle: Klucel (hydroxypropylcellulose) (HPC) 103 % of control

O=C(O)c1c(Cl)c(Cl)c(Cl)c(Cl)c1-c1c2cc(Br)c(=O)c(Br)c-2oc2c(Br)c(O)c(Br)cc12
inactive: [10] 89 % of control | [27] 90 % of control

c1ccc(N2CN(c3ccccc3)C2)cc1
inactive: dose: 60.0 mg/kg/injection, schedule: Q01DX005 (ip), vehicle: Klucel (hydroxypropylcellulose) (HPC) 88 % of control | dose: 120.0 mg/kg/injection, schedule: Q01DX005 (ip), vehicle: Klucel (hydroxypropylcellulose) (HPC) 86 % of control | dose: 240.0 mg/kg/injection, schedule: Q01DX005 (ip), vehicle: Klucel (hydroxypropylcellulose) (HPC) 88 % of control

Cc1cccc2nc(-c3ccccn3)n(CCc3ccccn3)c12
inactive: [21] 98 % of control | [22] 106 % of control

CCOC(=O)Nc1cc(NC/C(CN(C)c2ccc(OC)cc2)=N/O)c([N+](=O)[O-])c(N)n1
inactive: [10] 86 % of control | [27] 86 % of control

CC[N+](CC)=c1ccc2nc3c(cc(NCc4ccccc4)c4ccccc43)oc-2c1
inactive: [8] 103 % of control | [9] 100 % of control | [10] 105 % of control and 107 % of control

CCCCCCCCCCC(Nc1nncs1)Nc1nncs1
inactive: [28] 96 % of control | [29] 95 % of control | [30] 95 % of control

COCNC(=S)c1cc(C(=S)NCOC)c(C(=O)NC(C)(C)C)nc1C(=O)NC(C)(C)C
inactive: [24] 92 % of control | [25] 98 % of control | [26] 93 % of control

O=C(O)Cc1c[nH]c2cc(Cl)ccc12
inactive: [17] 100 % of control | [18] 102 % of control | [19] 105 % of control

Cc1ccccc1-n1c(C)nc2c(cnn2C)c1=O
inactive: [21] 100 % of control | [22] 95 % of control | [23] 97 % of control

Cc1csc(N2C(=O)c3cccc4cccc(c34)C2=O)n1
inactive: [28] 110 % of control | [29] 96 % of control | [30] 96 % of control
